# Test system: Unknown protein yeast genes
# Test: DNA chip mRNA expression in yeast, unknown protein yeast genes (Table 1)
# Format: cell-based, Saccharomyces cerevisiae S288C
# Description: Yeast (Saccharomyces cerevisiae S288C (α SUC2mal mel gap2 CUP1)) were incubated at 25° C. on YPD medium (yeast extract 1%, polypepton 2%, glucose 2%). One of toxic chemical substances was added to the cells at logarithmic growth phase, and the cells were further incubated for two hours. Cells were cultured without any chemical substance in the same condition, and were used as control. Concentrations of the chemical substances were defined to inhibit the growth of the yeast but not lead to death.
# After completion of the incubation, the culture was centrifuged to collect the cells. To the cells, sodium acetate buffer (50 mM sodium acetate, 10 mM EDTA, 1% SDS) was added, and the mixture was shaken at 65° C. for five minutes, followed by returning to room temperature, and obtaining the supernatant, of which the procedures were repeated two times. To the supernatant, ½ amount of a solution of phenol/chloroform was added, and the mixture was centrifuged to give a supernatant, which was added with an equal amount of chloroform, and the mixture was centrifuged to give a supernatant. To the supernatant, an equal amount of isopropanol containing 0.3 M sodium acetate was added, and the mixture was allowed to stand at room temperature for 30 minutes, after which the mixture was centrifuged to give a sediment of the whole RNAs. Seventy % ethanol was added to the sediment, and the mixture was again centrifuged to give a sediment, which was then dried and dissolved in water. mRNA was isolated from the whole RNAs as followings. In view of the fact that a poly A chain is attached to the 3′ terminus of mRNA, a polynucleotide having a poly T structure which was immobilized on the surface of latex beads was used to trap the mRNA, and then the mRNA was washed and eluted with spine column (Oligotex-dT30<Super>mRNA Purification Kit, Takara). Reverse transcription of the mRNA was conducted with a reverse transcriptase (Super Script II Reverse Transcriptase; catalogue No. 18064-014, GibcoBRL) using fluorescence-labeled nucleotides to give cDNAs that were introduced with Cy3-dUTP or Cy5-dUTP during the reverse transcription.
# The labeled cDNAs were dissolved in TE buffer (10mM Tris-HCl/1 mM EDTA, pH8.0), and the solution was dropped on the DNA chip containing the whole genes of yeast (DNA Chip Research Inc. Japan) so that the cDNAs were hybridized on the DNA chip at 65° C. for over 12 hours. The fluoresces intensity of the DNA chip was read with a scanner, and the ratio relative to the fluorescence intensity resulting from the absence of chemical substance was estimated as the following, which is shown in Tables 1 to 9: […]
smiles,measurement,setting,value
"CCCCCCCCCCCCOS(=O)(=O)[O-].[Na+] [(18), sodium lauryl sulfate]",The level of expressed mRNA in the presence of chemical substance/The level of expressed mRNA in the absence of chemical substance,"yeast gene YAL053W, incubated two hours with chemical substance",1.6
same,The level of expressed mRNA in the presence of chemical substance/The level of expressed mRNA in the absence of chemical substance,yeast gene YBL048W,1.0
same,The level of expressed mRNA in the presence of chemical substance/The level of expressed mRNA in the absence of chemical substance,yeast gene YBL107C,1.4
same,The level of expressed mRNA in the presence of chemical substance/The level of expressed mRNA in the absence of chemical substance,"yeast gene YDL072C, incubated two hours with chemical substance",2.8
same,The level of expressed mRNA in the presence of chemical substance/The level of expressed mRNA in the absence of chemical substance,yeast gene YDL110C,4.4
same,The level of expressed mRNA in the presence of chemical substance/The level of expressed mRNA in the absence of chemical substance,"yeast gene YDL204W, incubated two hours with chemical substance",2.7
same,The level of expressed mRNA in the presence of chemical substance/The level of expressed mRNA in the absence of chemical substance,"yeast gene YDL222C, incubated two hours with chemical substance",1.3
same,The level of expressed mRNA in the presence of chemical substance/The level of expressed mRNA in the absence of chemical substance,"yeast gene YDR330W, incubated two hours with chemical substance",1.3
same,The level of expressed mRNA in the presence of chemical substance/The level of expressed mRNA in the absence of chemical substance,"yeast gene YDR391C, incubated two hours with chemical substance",2.4
same,The level of expressed mRNA in the presence of chemical substance/The level of expressed mRNA in the absence of chemical substance,"yeast gene YDR411C, incubated two hours with chemical substance",1.3
same,The level of expressed mRNA in the presence of chemical substance/The level of expressed mRNA in the absence of chemical substance,"yeast gene YDR511W, incubated two hours with chemical substance",1.5
same,The level of expressed mRNA in the presence of chemical substance/The level of expressed mRNA in the absence of chemical substance,yeast gene YDR533C,2.7
same,The level of expressed mRNA in the presence of chemical substance/The level of expressed mRNA in the absence of chemical substance,"yeast gene YDR545W, incubated two hours with chemical substance",0.9
same,The level of expressed mRNA in the presence of chemical substance/The level of expressed mRNA in the absence of chemical substance,"yeast gene YEL001C, incubated two hours with chemical substance",1.3
same,The level of expressed mRNA in the presence of chemical substance/The level of expressed mRNA in the absence of chemical substance,"yeast gene YER004W, incubated two hours with chemical substance",1.2
same,The level of expressed mRNA in the presence of chemical substance/The level of expressed mRNA in the absence of chemical substance,"yeast gene YER035W, incubated two hours with chemical substance",2.1
same,The level of expressed mRNA in the presence of chemical substance/The level of expressed mRNA in the absence of chemical substance,"yeast gene YER079W, incubated two hours with chemical substance",1.6
same,The level of expressed mRNA in the presence of chemical substance/The level of expressed mRNA in the absence of chemical substance,"yeast gene YER106W, incubated two hours with chemical substance",0.8
same,The level of expressed mRNA in the presence of chemical substance/The level of expressed mRNA in the absence of chemical substance,"yeast gene YER158C, incubated two hours with chemical substance",1.2
same,The level of expressed mRNA in the presence of chemical substance/The level of expressed mRNA in the absence of chemical substance,"yeast gene YER163C, incubated two hours with chemical substance",1.2
same,The level of expressed mRNA in the presence of chemical substance/The level of expressed mRNA in the absence of chemical substance,"yeast gene YER175C, incubated two hours with chemical substance",1.2
same,The level of expressed mRNA in the presence of chemical substance/The level of expressed mRNA in the absence of chemical substance,"yeast gene YFL006W, incubated two hours with chemical substance",0.8
same,The level of expressed mRNA in the presence of chemical substance/The level of expressed mRNA in the absence of chemical substance,"yeast gene YFL010C, incubated two hours with chemical substance",1.6
same,The level of expressed mRNA in the presence of chemical substance/The level of expressed mRNA in the absence of chemical substance,yeast gene YFL024C,0.8
same,The level of expressed mRNA in the presence of chemical substance/The level of expressed mRNA in the absence of chemical substance,"yeast gene YFL032W, incubated two hours with chemical substance",0.8
same,The level of expressed mRNA in the presence of chemical substance/The level of expressed mRNA in the absence of chemical substance,"yeast gene YGL037C, incubated two hours with chemical substance",2.6
same,The level of expressed mRNA in the presence of chemical substance/The level of expressed mRNA in the absence of chemical substance,"yeast gene YGL047W, incubated two hours with chemical substance",1.2
same,The level of expressed mRNA in the presence of chemical substance/The level of expressed mRNA in the absence of chemical substance,"yeast gene YGL053W, incubated two hours with chemical substance",3.7
same,The level of expressed mRNA in the presence of chemical substance/The level of expressed mRNA in the absence of chemical substance,yeast gene YGL121C,3.5
same,The level of expressed mRNA in the presence of chemical substance/The level of expressed mRNA in the absence of chemical substance,"yeast gene YGL199C, incubated two hours with chemical substance",1.0
same,The level of expressed mRNA in the presence of chemical substance/The level of expressed mRNA in the absence of chemical substance,"yeast gene YGR101W, incubated two hours with chemical substance",1.1
same,The level of expressed mRNA in the presence of chemical substance/The level of expressed mRNA in the absence of chemical substance,yeast gene YGR110W,2.1
same,The level of expressed mRNA in the presence of chemical substance/The level of expressed mRNA in the absence of chemical substance,"yeast gene YGR130C, incubated two hours with chemical substance",1.6
same,The level of expressed mRNA in the presence of chemical substance/The level of expressed mRNA in the absence of chemical substance,"yeast gene YGR154C, incubated two hours with chemical substance",1.2
same,The level of expressed mRNA in the presence of chemical substance/The level of expressed mRNA in the absence of chemical substance,"yeast gene YGR221C, incubated two hours with chemical substance",1.3
same,The level of expressed mRNA in the presence of chemical substance/The level of expressed mRNA in the absence of chemical substance,yeast gene YGR243W,4.4
same,The level of expressed mRNA in the presence of chemical substance/The level of expressed mRNA in the absence of chemical substance,yeast gene YHR054C,3.4
same,The level of expressed mRNA in the presence of chemical substance/The level of expressed mRNA in the absence of chemical substance,"yeast gene YHR138C, incubated two hours with chemical substance",7.1
same,The level of expressed mRNA in the presence of chemical substance/The level of expressed mRNA in the absence of chemical substance,"yeast gene YHR199C, incubated two hours with chemical substance",0.9
same,The level of expressed mRNA in the presence of chemical substance/The level of expressed mRNA in the absence of chemical substance,yeast gene YHR209W,2.6
same,The level of expressed mRNA in the presence of chemical substance/The level of expressed mRNA in the absence of chemical substance,"yeast gene YIL023C, incubated two hours with chemical substance",1.0
same,The level of expressed mRNA in the presence of chemical substance/The level of expressed mRNA in the absence of chemical substance,"yeast gene YIL041W, incubated two hours with chemical substance",1.1
same,The level of expressed mRNA in the presence of chemical substance/The level of expressed mRNA in the absence of chemical substance,"yeast gene YIL087C, incubated two hours with chemical substance",1.6
same,The level of expressed mRNA in the presence of chemical substance/The level of expressed mRNA in the absence of chemical substance,"yeast gene YJL057C, incubated two hours with chemical substance",1.5
same,The level of expressed mRNA in the presence of chemical substance/The level of expressed mRNA in the absence of chemical substance,"yeast gene YJL066C, incubated two hours with chemical substance",1.5
same,The level of expressed mRNA in the presence of chemical substance/The level of expressed mRNA in the absence of chemical substance,"yeast gene YJL082W, incubated two hours with chemical substance",0.3
same,The level of expressed mRNA in the presence of chemical substance/The level of expressed mRNA in the absence of chemical substance,"yeast gene YJL151C, incubated two hours with chemical substance",2.4
same,The level of expressed mRNA in the presence of chemical substance/The level of expressed mRNA in the absence of chemical substance,"yeast gene YJL152W, incubated two hours with chemical substance",1.7
same,The level of expressed mRNA in the presence of chemical substance/The level of expressed mRNA in the absence of chemical substance,"yeast gene YJL161W, incubated two hours with chemical substance",2.1
same,The level of expressed mRNA in the presence of chemical substance/The level of expressed mRNA in the absence of chemical substance,"yeast gene YJL171C, incubated two hours with chemical substance",2.9
same,The level of expressed mRNA in the presence of chemical substance/The level of expressed mRNA in the absence of chemical substance,"yeast gene YJR008W, incubated two hours with chemical substance",2.7
same,The level of expressed mRNA in the presence of chemical substance/The level of expressed mRNA in the absence of chemical substance,"yeast gene YJR054W, incubated two hours with chemical substance",0.9
same,The level of expressed mRNA in the presence of chemical substance/The level of expressed mRNA in the absence of chemical substance,yeast gene YKL071W,0.9
same,The level of expressed mRNA in the presence of chemical substance/The level of expressed mRNA in the absence of chemical substance,"yeast gene YKL086W, incubated two hours with chemical substance",1.0

# From US8192962B2, “Processes for detecting toxic substances” (Daikin Industries, Ltd., priority 2001, dated 2012)
